{
  "source": "patent US6544727B1",
  "about": "“Methods and devices for the removal of psoralens from blood products” (Cerus Corporation, priority 1995, dated 2003)",
  "key": {"[1]": {"test_system": "Salmonella tester strain TA97a", "summary_of_the_method": "(§1)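 Pre-incubation Ames method: overnight culture plus 10% Aroclor 1254-induced rat liver S-9 mix or 0.2M phosphate buffer pH 7.4, with test solutions of 0–500 μg/mL, shaken 20 min at 37° C. Plated in histidine/biotin top agar on minimal glucose agar, revertant colonies counted after 44 h at 37° C against spontaneous-revertant background.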"}, "Pseudomonas": {"test_system": "Pseudomonas", "assay": "Bacterial inactivation, colony forming units", "format": "cell-based", "conditions": "16 μM; 5 J/cm^2 irradiation; starting titer 6.5 logs", "description": "The bacteria, a strain of Pseudomonas, was inoculated into LB with a sterile loop and grown overnight in a shaker at 37° C. Based on the approximation that one OD at 610 mn is equivalent to 5×10^8 colony forming units (cfu)/mL, a 1:10 dilution of the culture was measured on a spectrophotometer, (manufactured by Shimatsu). The bacterial culture was added to a solution of 15% fetal bovine serum in DMEM to a final bacteria concentration of approximately 10^6/mL. An aliquot (0.8 mL) was transferred to a 1.5 mL snap-top polyethylene tube. An aliquot (0.004-0.040 mL) of the test compound stock solution prepared in water, ethanol or dimethylsulfoxide at 0.80-8.0 mM was added to the tube. Compounds were tested at a concentration of 16 μM. The tubes were placed in a light device as described in EXAMPLE 1 and irradiated with 1.3 J/cm^2, 1.2 J/cm^2, and finally 2.5 J/cm^2, for a total of 5 J/cm^2. 150 μL were removed for testing after each pulse period. Sterile 13 mL dilution tubes were prepared; each test compound required one tube with 0.4 mL of LB broth and four tubes containing 0.5 mL of LB broth. […] The colony forming units were then counted the following morning and the titer of the phage remaining after phototreatment was calculated based on the dilution factors. […]"}, "[2]": {"assay": "Residual S-59 and photoproducts D and E in fresh frozen plasma after batch RD (Tables R, T)", "format": "physicochemical, human", "description": "Samples taken from each bag after a 1-hour incubation were analyzed for S-59 and photoproduct removal. The results (n=7) for residual S-59 and photoproducts D and E (two of primary photoproducts formed during illumination, as described above) are presented in Table R (ND=not detectable; 1 hour incubation).\nThe experiments were performed in the manner described above."}, "[3]": {"test_system": "Salmonella tester strain TA100", "summary_of_the_method": "as §1"}, "platelets": {"test_system": "platelets", "assay": "Partitioning of S-59 in platelet concentrate before and after UVA illumination", "format": "in vitro ADME", "conditions": "% of the original S-59, after UVA", "from_the_text": "During the UVA illumination process, S-59 undergoes a photochemical reaction to form several low molecular weight photoproducts in addition to associating with macromolecules in both the platelet and the plasma fractions. […] This fraction of low molecular weight photoproducts is removed during the scrub process, and their removal can be monitored both by HPLC and by radioactivity measurement using ^3H-labeled S-59.\nThe S-59 which is not amenable to removal by the scrub/capture process can also be monitored using ^3H-labeled S-59."}, "R17 bacteriophage": {"test_system": "R17 bacteriophage", "assay": "R17 bacteriophage inactivation at constant concentration, varying doses of UV light", "format": "cell-based", "conditions": "1.0-3.0 J/cm^2, FIGS. 11-17", "description": "Compounds of the present invention were also tested at a constant concentration for varying doses of UV light. Three sets of 1.5 mL tubes were prepared containing 0.6mL aliquots of R17 in DMEM (prepared as described above). The compound tested was added at the desired concentration and the samples were vortexed. The samples were then irradiated at intervals of 1.0 J/cm^2, until 3.0 J/cm^2 was reached. Between each 1.0 J/cm^2 interval, 100 μL was removed from each sample and placed in the first corresponding dilution tube, then five sequential dilutions were performed for each compound tested, at all 3 irradiation doses, as described above in this example.\nThen 50 μL of Hfr 3000 bacteria was added to each tube, 3 mL of top agar was added and the tube contents were vortexed The contents of each tube was poured into its own LB plate and the plates were incubated overnight at 37° C. Plaques were counted by visual inspection the following morning."}},
  "note": "Read-outs that look alike come from different tables or passages of the source.",
  "data": [
    {"smiles": "Cc1oc2c(C)c3oc(=O)cc(C)c3cc2c1CN", "note": "[AMT, 4′-Aminomethyl-4,5′,8-trimethylpsoralen, reference compound]", "values": [
      {"measurement": "revertant colonies per plate", "setting": "[1]; TA97a + S9, 0.1 μg/plate", "result": "−23"},
      {"measurement": "revertant colonies per plate", "setting": "[1]; TA97a + S9, 0.5 μg/plate", "result": 32},
      {"measurement": "revertant colonies per plate", "setting": "[1]; TA97a + S9, 1 μg/plate", "result": 32},
      {"measurement": "revertant colonies per plate", "setting": "[1]; TA97a + S9, 5 μg/plate", "result": 149},
      {"measurement": "revertant colonies per plate", "setting": "[1]; TA97a − S9, 0.1 μg/plate", "result": 14},
      {"measurement": "revertant colonies per plate", "setting": "[1]; TA97a − S9, 0.5 μg/plate", "result": 9},
      {"measurement": "revertant colonies per plate", "setting": "[1]; TA97a − S9, 1 μg/plate", "result": 54},
      {"measurement": "revertant colonies per plate", "setting": "[1]; TA97a − S9, 5 μg/plate", "result": 73},
      {"measurement": "log kill of Pseudomonas", "setting": "Pseudomonas", "result": 5.2, "unit": "logs"}
    ]},
    {"smiles": "Cc1oc2c(C)c3oc(=O)cc(C)c3cc2c1COCCN", "note": "[Compound 2, 4′-(4-amino-2-oxa)butyl-4,5′,8-trimethylpsoralen]", "values": [
      {"measurement": "residual S-59 in fresh frozen plasma", "setting": "[2]; RD with […] g Dowex XUS 43493, approximately one hour incubation", "result": "≤ 0.75", "unit": "µM"},
      {"measurement": "Concentration in plasma, Pre-Removal", "setting": "[2]; Table R, 150 μM S-59 in plasma after 3 J/cm^2 UVA, before RD", "result": 83.30, "unit": "µM"},
      {"measurement": "Concentration in plasma, Pre-removal (±SD)", "setting": "[2]; Table T, 150 μM S-59 in plasma after 3 J/cm^2 UVA, before RD", "result": "88.7 ± 4.1", "unit": "µM"},
      {"measurement": "revertant colonies per plate", "setting": "[3]; TA100 + S9, 5 μg/plate", "result": "−18"},
      {"measurement": "revertant colonies per plate", "setting": "[3]; TA100 + S9, 10 μg/plate", "result": 1},
      {"measurement": "revertant colonies per plate", "setting": "[3]; TA100 + S9, 50 μg/plate", "result": 115},
      {"measurement": "revertant colonies per plate", "setting": "[3]; TA100 + S9, 100 μg/plate", "result": 96},
      {"measurement": "revertant colonies per plate", "setting": "[3]; TA100 − S9, 5 μg/plate", "result": 103},
      {"measurement": "revertant colonies per plate", "setting": "[3]; TA100 − S9, 10 μg/plate", "result": 46},
      {"measurement": "revertant colonies per plate", "setting": "[3]; TA100 − S9, 50 μg/plate", "result": 182},
      {"measurement": "revertant colonies per plate", "setting": "[3]; TA100 − S9, 100 μg/plate", "result": 121},
      {"measurement": "photo-reaction products of S-59", "setting": "platelets", "result": "40-50%"}
    ]},
    {"smiles": "Cc1oc2c(C)c3oc(=O)cc(C)c3cc2c1CNCCCCN", "note": "[Compound 6, 4′-(6-amino-2-aza)hexyl-4,5′,8-trimethylpsoralen]", "values": [
      {"measurement": "R17 inactivation efficiency compared with AMT (in words)", "setting": "R17 bacteriophage", "result": "more efficient at inactivating R17 than was AMT"}
    ]}
  ]
}
